What all share (type): in vivo
In test [1] the test system is Ipomoea purpurea. Put plainly: Herbicidal effect pre-emergence, PHBPU. As to conditions: 320 g/hectare, visual grading after 3 weeks vs untreated controls. The source says: (§1) Seeds of mono- and dicotyledonous weed plants and crop plants are planted in wood-fiber pots in sandy loam and covered with earth. The compounds according to the invention, formulated in the form of wettable powders (WP) or as emulsion concentrates (EC), are then applied to the surface of the covering earth as aqueous suspension or emulsion at an application rate corresponding to 320 g/hectare at an application rate of 600 to 800 l of water/ha (converted) with the addition of 0.2% wetting agent.
(§2) Following treatment, the pots are placed in a greenhouse and kept under good growth conditions for the test plants. The visual grading of the damage to the test plants is carried out after a test time of 3 weeks in comparison to untreated controls (herbicidal effect in percent (%): 100% effect=plants have died off, 0% effect=as control plants).

Another test relates to Stellaria media. Put plainly: Herbicidal effect post-emergence, STEME. As to the method:
(§3) Seeds of mono- and dicotyledonous weed plants and crop plants are planted in wood-fiber pots in sandy loam, covered with earth and grown in a greenhouse under good growth conditions. 2 to 3 weeks after sowing, the test plants are treated in the single-leaf stage. The compounds according to the invention, formulated in the form of wettable powders (WP) or as emulsion concentrates (EC), are then sprayed onto the green plant parts as aqueous suspension or emulsion using an application rate of 600 to 800 l of water/ha (converted) with the addition of 0.2% by weight of wetting agent. After the test plants had been in the greenhouse for ca. 3 weeks under optimum growth conditions, the effect of the preparations is scored visually in comparison with untreated controls (herbicidal effect in percent (%): 100% effect=plants have died off, 0% effect=as control plants).

Test [2] relates to Amaranthus retroflexus. Put plainly: Herbicidal effect pre-emergence, AMARE. The settings on record: 320 g/hectare, visual grading after 3 weeks vs untreated controls.
From the text: as §1, §2

The test system of test [3] is Abutilon theophrasti. Kind of test: Herbicidal effect pre-emergence, ABUTH. The settings on record: 320 g/hectare, visual grading after 3 weeks vs untreated controls.
From the text: as §1, §2

Test [4] has as its system Setaria viridis. Kind of test: Herbicidal effect post-emergence, SETVI. As to the method:
as §3

Test [5] has as its system Polygonum (Fallopia) convolvulus. Put plainly: Herbicidal effect post-emergence, POLCO. As to the method:
as §3

The test system of test [6] is Abutilon theophrasti. Put plainly: Herbicidal effect post-emergence, ABUTH. As to the method:
as §3

Another test concerns Matricaria inodora. Kind of test: Herbicidal effect post-emergence, MATIN. On the procedure: as §3
Test [7] has as its system Veronica persica. Put plainly: Herbicidal effect post-emergence, VERPE. On the procedure:
as §3

Test [8] has as its system Amaranthus retroflexus. Put plainly: Herbicidal effect post-emergence, AMARE. As to the method:
as §3

The subject of test [9] is Viola tricolor. Kind of test: Herbicidal effect pre-emergence, VIOTR. The settings on record: 320 g/hectare, visual grading after 3 weeks vs untreated controls.
From the text: as §1, §2

The next test concerns Echinochloa crus-galli. Kind of test: Herbicidal effect post-emergence, ECHCG. As to the method: as §3
The subject of test [10] is Viola tricolor. Kind of test: Herbicidal effect post-emergence, VIOTR. On the procedure: as §3
Test [11] concerns Tripleurospermum inodorum. Put plainly: Herbicidal effect pre-emergence, MATIN. As to conditions: 320 g/hectare, visual grading after 3 weeks vs untreated controls.
From the text: as §1, §2

Test [12] deals with Ipomoea purpurea. Put plainly: Herbicidal effect post-emergence, PHBPU. On the procedure:
as §3

In the next test the test system is Alopecurus myosuroides. Put plainly: Herbicidal effect pre-emergence, ALOMY. As to conditions: 320 g/hectare, visual grading after 3 weeks vs untreated controls.
From the text: as §1, §2

The test system of test [13] is Veronica persica. Put plainly: Herbicidal effect pre-emergence, VERPE. As to conditions: 320 g/hectare, visual grading after 3 weeks vs untreated controls.
From the text: as §1, §2

Test [14] concerns Setaria viridis. Kind of test: Herbicidal effect pre-emergence, SETVI. As to conditions: 320 g/hectare, visual grading after 3 weeks vs untreated controls.
From the text: as §1, §2

The next test concerns Polygonum convolvulus. Put plainly: Herbicidal effect pre-emergence, POLCO. The settings on record: 320 g/hectare, visual grading after 3 weeks vs untreated controls.
From the text: as §1, §2

Another test has as its system Lolium multiflorum. Kind of test: Herbicidal effect pre-emergence, LOLMU. As to conditions: 320 g/hectare, visual grading after 3 weeks vs untreated controls.
From the text: as §1, §2

With `N.N#CC(C#N)c1nc(-c2ccc(Cl)cc2)nc(N)c1Cl` [Ex. No. 308, Ammonium [6-amino-5-chloro-2-(4-chlorophenyl)pyrimidin-4-yl](dicyano)methanide], the figures for the “Effect in % in respect of stated plant, PHBPU” value (“Effect in % … PHBPU” for short) in the test with Ipomoea purpurea [1] and in the test on Ipomoea purpurea [12] were 95% and 90%, respectively. For the same molecule, the “Effect in % in respect of stated plant, STEME” value (from here on “Effect in % … STEME”) in the test with Stellaria media amounted to 92%. Also, the “Effect in % in respect of stated plant, AMARE” value (“Effect in % … AMARE” for short) with Amaranthus retroflexus [2] and with Amaranthus retroflexus [8] was 100% each time. The figures for the “Effect in % in respect of stated plant, ABUTH” value (from here on “Effect in % … ABUTH”) in the test on Abutilon theophrasti [3] and in the test with Abutilon theophrasti [6] were 80% and 93%, respectively. Besides, the “Effect in % in respect of stated plant, SETVI” value (from here on “Effect in % … SETVI”) was 87% with Setaria viridis [4] and 90% in the test on Setaria viridis [14]. In addition, the results for the “Effect in % in respect of stated plant, POLCO” value (“Effect in % … POLCO” below) (in test [5]; in the test with Polygonum convolvulus) were 100% and 90%, respectively. Moreover, the “Effect in % in respect of stated plant, MATIN” value (“Effect in % … MATIN” for short) with Matricaria inodora came out at 93%; in test [11] it was 90%. The “Effect in % in respect of stated plant, VERPE” value (shortened to “Effect in % … VERPE”) with Veronica persica [7] worked out at 97%; in the test with Veronica persica [13], 100%. For the same molecule, the “Effect in % in respect of stated plant, VIOTR” value (“Effect in % … VIOTR” below) came out at 100% in the test with Viola tricolor [9] and 88% in the test on Viola tricolor [10]. Moreover, the “Effect in % in respect of stated plant, ECHCG” value (shortened to “Effect in % … ECHCG”) with Echinochloa crus-galli was determined as 88%. For the same molecule, the “Effect in % in respect of stated plant, ALOMY” value in the test with Alopecurus myosuroides is reported as 80%.

With `N.N#CC(C#N)c1nc(-c2ccc(C(F)(F)F)cc2)nc(N)c1Cl` [Compound 318], the “Effect in % … POLCO” value (in test [5]; with Polygonum convolvulus) was 80% in each case. Besides, the “Effect in % … ABUTH” value with Abutilon theophrasti [6] was determined as 80%. Further, the “Effect in % … MATIN” value with Matricaria inodora is 90%. Also, the “Effect in % … VERPE” value in the test with Veronica persica [7] is 90%; in the test on Veronica persica [13], 100%.

Turning to `N#CC(C#N)c1nc(-c2ccc(Br)cc2F)nc(N)c1Cl` [compound 208], in the test on Stellaria media, the “Effect in % … STEME” value is on record as 90%. Further, the results for the “Effect in % … AMARE” value in the test on Amaranthus retroflexus [2] and in the test on Amaranthus retroflexus [8] were 80% and 100%, respectively. The “Effect in % … ABUTH” value with Abutilon theophrasti [3] was 100%; with Abutilon theophrasti [6], 90%. In test [5], the “Effect in % … POLCO” value is 80%. Further, the “Effect in % … MATIN” value with Matricaria inodora is recorded as 100%. Further, the “Effect in % … VERPE” value in the test on Veronica persica [7] is given as 90%; in the test with Veronica persica [13], 100%. The “Effect in % … VIOTR” value in the test with Viola tricolor [10] is 90%. Further, in the test on Ipomoea purpurea [12], the “Effect in % … PHBPU” value was 80%. Also, in the test on Setaria viridis [14], the “Effect in % … SETVI” value was 90%.

With `N#CC(C#N)c1nc(C2CC2)nc(N)c1Cl` [compound 249], the results for the “Effect in % … PHBPU” value in the test on Ipomoea purpurea [1] and with Ipomoea purpurea [12] were 85% and 90%, respectively. In addition, the “Effect in % … STEME” value in the test on Stellaria media came to 80%. For the same molecule, the “Effect in % … AMARE” value with Amaranthus retroflexus [2] is recorded as 90%; in the test on Amaranthus retroflexus [8], 93%. Further, the “Effect in % … ABUTH” value in the test on Abutilon theophrasti [3] is reported as 90%; with Abutilon theophrasti [6], 83%. For the same molecule, the “Effect in % … POLCO” value (in [5]; in the test with Polygonum convolvulus) was 90% throughout. In addition, the “Effect in % … MATIN” value (in the test with Matricaria inodora; in test [11]) was 90% each time. In addition, the “Effect in % … VERPE” value in the test with Veronica persica [7] stood at 100%; in the test with Veronica persica [13], 90%. For the same molecule, the “Effect in % … VIOTR” value in the test with Viola tricolor [9] is listed as 95%; in the test with Viola tricolor [10] it was 87%. Besides, the “Effect in % … ECHCG” value with Echinochloa crus-galli is 90%.

As for `COc1c(Cl)ccc(-c2nc(N)c(Cl)c(C(C#N)C#N)n2)c1F.N` [Compound 359], the “Effect in % … AMARE” value in the test on Amaranthus retroflexus [2] and in the test on Amaranthus retroflexus [8] was 100% in each case. Further, the results for the “Effect in % … ABUTH” value in the test with Abutilon theophrasti [3] and in the test with Abutilon theophrasti [6] were 90% and 80%, respectively. The “Effect in % … SETVI” value with Setaria viridis [4] is 80%; with Setaria viridis [14], 90%. The “Effect in % in respect of stated plant, LOLMU” value in the test with Lolium multiflorum is 80%. For the same molecule, in test [5], the “Effect in % … POLCO” value turned out to be 90%. The entries for the “Effect in % … MATIN” value (with Matricaria inodora; in [11]) were 90% and 100%, respectively. For the same molecule, the “Effect in % … ECHCG” value in the test with Echinochloa crus-galli came out at 90%. Besides, in the test on Ipomoea purpurea [12], the “Effect in % … PHBPU” value came out at 80%. The “Effect in % … VERPE” value in the test with Veronica persica [13] is 100%.

For `N#CC(C#N)c1nc(C2CC2)nc(N)c1F` [compound 248], the “Effect in % … PHBPU” value in the test with Ipomoea purpurea [1] stood at 80%. The “Effect in % … STEME” value in the test on Stellaria media came out at 80%. For the same molecule, the “Effect in % … MATIN” value (in the test on Matricaria inodora; in test [11]) was 80% in each case. Besides, the “Effect in % … VERPE” value in the test on Veronica persica [7] and with Veronica persica [13] was 90% each time. For the same molecule, the “Effect in % … AMARE” value in the test with Amaranthus retroflexus [8] stood at 80%.
